Test results: patent publication US20260022142A1, “MACROCYCLIC IMMUNOMODULATORS” (Bristol-Myers Squibb Company, priority 2022, published 2026)
Bridge positions count the residues as written; N and C are the ends. Square brackets hold non-standard residues; d marks the D form. Peptide text beside a SMILES is read from it. * marks the point of attachment. Phe(4-COOH) = N[C@@H](Cc1ccc(C(=O)O)cc1)C(=O)O; Bip = N[C@@H](Cc1ccc(-c2ccccc2)cc1)C(=O)O; Morpholine(3S-CO) = O=C(O)[C@@H]1COCCN1; 4Pal = N[C@@H](Cc1ccncc1)C(=O)O; Cha = N[C@@H](CC1CCCCC1)C(=O)O; Cit = NC(=O)NCCC[C@H](N)C(=O)O; 3Abz = Nc1cccc(C(=O)O)c1; 4Abz = Nc1ccc(C(=O)O)cc1; Carboxymethyl = O=C(O)C*; Orn = NCCC[C@H](N)C(=O)O; Aun = NCCCCCCCCCCC(=O)O; Dab = NCC[C@H](N)C(=O)O; Dap = NC[C@H](N)C(=O)O; AEEA = NCCOCCOCC(=O)O

target: T1, PD-1/PD-L1 interaction (PE-labeled human PD-L1-Ig binding to Jurkat cell line over-expressing human PD-1) (Homo sapiens, UniProt Q15116); assay: Jurkat-PD-1 Cell Binding High-Content Screening Assay (CBA); type: cell-based; settings: Jurkat cell line over-expressing human PD-1; PE-labeled PD-L1-Ig 20 nM final; read-out: Jurkat hPD1-PDL1 IC50
T1 construct: expressed in transfected cells; host or cells: Jurkat
How it was run: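 Read-out is high-content imaging of cell-bound phycoerythrin-tagged PD-L1-Ig on fixed, Hoechst-counterstained Jurkat cells that over-express human PD-1. Compound exposure lasts 2 h at 37° C before the labeled ligand (20 nM final) is added for a further hour.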

T1 sequence (Q15116 25-288): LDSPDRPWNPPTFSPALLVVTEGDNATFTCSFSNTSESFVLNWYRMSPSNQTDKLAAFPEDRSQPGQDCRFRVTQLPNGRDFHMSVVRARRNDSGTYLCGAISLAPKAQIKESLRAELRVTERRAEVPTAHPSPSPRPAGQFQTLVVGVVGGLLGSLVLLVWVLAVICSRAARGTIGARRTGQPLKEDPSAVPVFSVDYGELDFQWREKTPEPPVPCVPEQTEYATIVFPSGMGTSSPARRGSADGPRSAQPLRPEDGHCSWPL

Structure (SMILES) | IC50 [nM]
CC(C)C[C@@H]1NC(=O)[C@H](Cc2c[nH]c3ccccc23)NC(=O)[C@H](CC(=O)O)NC(=O)[C@H](Cc2ccncc2)NC(=O)[C@H](Cc2ccc(OCC(=O)O)cc2)NC(=O)CSC[C@@H](C(=O)N2CCOC[C@H]2C(=O)NCCCCCCCCCCC(=O)O)NC(=O)[C@H](CCCNC(N)=O)NC(=O)[C@H](C(C)C)NC(=O)[C@H](CC2CCCCC2)NC(=O)[C@H](CCN)NC(=O)[C@@H](CC(C)C)NC(=O)[C@H](CCCN)NC(=O)[C@H](C(C)C)NC(=O)[C@H](Cc2ccc(-c3ccccc3)cc2)NC1=O [Compound 1227] ({CH2CO}-Y(Carboxymethyl)[4Pal]DWL[Bip]V[Orn][dL][Dab][Cha]V[Cit]C[Morpholine(3S-CO)][Aun]-OH; thioether N-14) | 304
CC(C)C[C@@H]1NC(=O)[C@H](Cc2c[nH]c3ccccc23)NC(=O)[C@H](CC(=O)O)NC(=O)[C@H](Cc2ccncc2)NC(=O)[C@H](Cc2ccc(OCC(=O)O)cc2)NC(=O)CSC[C@@H](C(=O)Nc2cccc(C(=O)NCCCCCCCCCCC(=O)O)c2)NC(=O)[C@H](CCN)NC(=O)[C@H](C(C)C)NC(=O)[C@H](CC2CCCCC2)NC(=O)[C@H](CCN)NC(=O)[C@@H](CC(C)C)NC(=O)[C@H](CCCN)NC(=O)[C@H](C(C)C)NC(=O)[C@H](Cc2ccc(-c3ccccc3)cc2)NC1=O [Compound 1228] ({CH2CO}-Y(Carboxymethyl)[4Pal]DWL[Bip]V[Orn][dL][Dab][Cha]V[Dab]C[3Abz][Aun]-OH; thioether N-14) | 307
CC(C)C[C@@H]1NC(=O)[C@H](Cc2c[nH]c3ccccc23)NC(=O)[C@H](CC(=O)O)NC(=O)[C@H](Cc2ccncc2)NC(=O)[C@H](Cc2ccc(OCC(=O)O)cc2)NC(=O)CSC[C@@H](C(=O)Nc2ccc(C(=O)NCCCCCCCCCCC(=O)O)cc2)NC(=O)[C@H](CCN)NC(=O)[C@H](C(C)C)NC(=O)[C@H](CC2CCCCC2)NC(=O)[C@H](CCN)NC(=O)[C@@H](CC(C)C)NC(=O)[C@H](CCCN)NC(=O)[C@H](C(C)C)NC(=O)[C@H](Cc2ccc(-c3ccccc3)cc2)NC1=O [Compound 1229] ({CH2CO}-Y(Carboxymethyl)[4Pal]DWL[Bip]V[Orn][dL][Dab][Cha]V[Dab]C[4Abz][Aun]-OH; thioether N-14) | 518
CC(C)C[C@@H]1NC(=O)[C@H](Cc2c[nH]c3ccccc23)NC(=O)[C@H](CC(=O)O)NC(=O)[C@H](Cc2ccc(C(=O)O)cc2)NC(=O)[C@H](Cc2ccc(OCC(=O)O)cc2)NC(=O)CSC[C@@H](C(=O)N[C@@H](CN)C(=O)NCCCCCCCCCCC(=O)O)NC(=O)[C@H](CCCNC(N)=O)NC(=O)[C@H](C(C)C)NC(=O)[C@H](CC2CCCCC2)NC(=O)[C@H](CCN)NC(=O)[C@@H](CC(C)C)NC(=O)[C@H](CCCN)NC(=O)[C@H](Cc2ccc(O)cc2)NC(=O)[C@H](Cc2ccc(-c3ccccc3)cc2)NC1=O [Compound 1233] ({CH2CO}-Y(Carboxymethyl)[Phe(4-COOH)]DWL[Bip]Y[Orn][dL][Dab][Cha]V[Cit]C[Dap][Aun]-OH; thioether N-14) | 22.1

More lines, now with the values ahead:

IC50 [nM] | Structure (SMILES)
39.8 | CC(C)C[C@@H]1NC(=O)[C@H](Cc2c[nH]c3ccccc23)NC(=O)[C@H](CC(=O)O)NC(=O)[C@H](Cc2ccc(C(=O)O)cc2)NC(=O)[C@H](Cc2ccc(OCC(=O)O)cc2)NC(=O)CSC[C@@H](C(=O)N[C@@H](CCN)C(=O)NCCCCCCCCCCC(=O)O)NC(=O)[C@H](CCCNC(N)=O)NC(=O)[C@H](C(C)C)NC(=O)[C@H](CC2CCCCC2)NC(=O)[C@H](CCN)NC(=O)[C@@H](CC(C)C)NC(=O)[C@H](CCCN)NC(=O)[C@H](Cc2ccc(O)cc2)NC(=O)[C@H](Cc2ccc(-c3ccccc3)cc2)NC1=O [Compound 1234] ({CH2CO}-Y(Carboxymethyl)[Phe(4-COOH)]DWL[Bip]Y[Orn][dL][Dab][Cha]V[Cit]C[Dab][Aun]-OH; thioether N-14)
32.1 | CC(C)C[C@@H]1NC(=O)[C@H](Cc2c[nH]c3ccccc23)NC(=O)[C@H](CC(=O)O)NC(=O)[C@H](Cc2ccc(C(=O)O)cc2)NC(=O)[C@H](Cc2ccc(OCC(=O)O)cc2)NC(=O)CSC[C@@H](C(=O)N[C@@H](CCCN)C(=O)NCCCCCCCCCCC(=O)O)NC(=O)[C@H](CCCNC(N)=O)NC(=O)[C@H](C(C)C)NC(=O)[C@H](CC2CCCCC2)NC(=O)[C@H](CCN)NC(=O)[C@@H](CC(C)C)NC(=O)[C@H](CCCN)NC(=O)[C@H](Cc2ccc(O)cc2)NC(=O)[C@H](Cc2ccc(-c3ccccc3)cc2)NC1=O [Compound 1235] ({CH2CO}-Y(Carboxymethyl)[Phe(4-COOH)]DWL[Bip]Y[Orn][dL][Dab][Cha]V[Cit]C[Orn][Aun]-OH; thioether N-14)
35.7 | CC(C)C[C@@H]1NC(=O)[C@H](Cc2c[nH]c3ccccc23)NC(=O)[C@H](CC(=O)O)NC(=O)[C@H](Cc2ccc(C(=O)O)cc2)NC(=O)[C@H](Cc2ccc(OCC(=O)O)cc2)NC(=O)CSC[C@@H](C(=O)N[C@@H](CCCCN)C(=O)NCCCCCCCCCCC(=O)O)NC(=O)[C@H](CCCNC(N)=O)NC(=O)[C@H](C(C)C)NC(=O)[C@H](CC2CCCCC2)NC(=O)[C@H](CCN)NC(=O)[C@@H](CC(C)C)NC(=O)[C@H](CCCN)NC(=O)[C@H](Cc2ccc(O)cc2)NC(=O)[C@H](Cc2ccc(-c3ccccc3)cc2)NC1=O [Compound 1236] ({CH2CO}-Y(Carboxymethyl)[Phe(4-COOH)]DWL[Bip]Y[Orn][dL][Dab][Cha]V[Cit]CK[Aun]-OH; thioether N-14)
70.6 | CC(C)C[C@@H]1NC(=O)[C@H](Cc2c[nH]c3ccccc23)NC(=O)[C@H](CC(=O)O)NC(=O)[C@H](Cc2ccc(C(=O)O)cc2)NC(=O)[C@H](Cc2ccc(OCC(=O)O)cc2)NC(=O)CSC[C@@H](C(=O)N[C@@H](CCCNC(=N)N)C(=O)NCCCCCCCCCCC(=O)O)NC(=O)[C@H](CCCNC(N)=O)NC(=O)[C@H](C(C)C)NC(=O)[C@H](CC2CCCCC2)NC(=O)[C@H](CCN)NC(=O)[C@@H](CC(C)C)NC(=O)[C@H](CCCN)NC(=O)[C@H](Cc2ccc(O)cc2)NC(=O)[C@H](Cc2ccc(-c3ccccc3)cc2)NC1=O [Compound 1237] ({CH2CO}-Y(Carboxymethyl)[Phe(4-COOH)]DWL[Bip]Y[Orn][dL][Dab][Cha]V[Cit]CR[Aun]-OH; thioether N-14)
39.3 | CC(C)C[C@@H]1NC(=O)[C@H](Cc2c[nH]c3ccccc23)NC(=O)[C@H](CC(=O)O)NC(=O)[C@H](Cc2ccc(C(=O)O)cc2)NC(=O)[C@H](Cc2ccc(OCC(=O)O)cc2)NC(=O)CSC[C@@H](C(=O)NCCOCCOCC(=O)NCCCCCCCCCCC(=O)O)NC(=O)[C@H](CN)NC(=O)[C@H](C(C)C)NC(=O)[C@H](CC2CCCCC2)NC(=O)[C@H](CCN)NC(=O)[C@@H](CC(C)C)NC(=O)[C@H](CCCN)NC(=O)[C@H](Cc2ccc(O)cc2)NC(=O)[C@H](Cc2ccc(-c3ccccc3)cc2)NC1=O [Compound 1238] ({CH2CO}-Y(Carboxymethyl)[Phe(4-COOH)]DWL[Bip]Y[Orn][dL][Dab][Cha]V[Dap]C[AEEA][Aun]-OH; thioether N-14)

same assay, conditions: Jurkat hPD1-PDL1 IC50, Jurkat cell line over-expressing human PD-1; PE-labeled PD-L1-Ig 20 nM final

Structure (SMILES) | IC50 [nM]
CC(C)C[C@@H]1NC(=O)[C@H](Cc2c[nH]c3ccccc23)NC(=O)[C@H](CC(=O)O)NC(=O)[C@H](Cc2ccncc2)NC(=O)[C@H](Cc2ccc(OCC(=O)O)cc2)NC(=O)CSC[C@@H](C(=O)Nc2ccc(C(=O)NCCCCCCCCCCC(=O)O)cc2)NC(=O)[C@H](CCCNC(=N)N)NC(=O)[C@H](C(C)C)NC(=O)[C@H](CC2CCCCC2)NC(=O)[C@H](CCN)NC(=O)[C@@H](CC(C)C)NC(=O)[C@H](CCCN)NC(=O)[C@H](C(C)C)NC(=O)[C@H](Cc2ccc(-c3ccccc3)cc2)NC1=O [Compound 1230] ({CH2CO}-Y(Carboxymethyl)[4Pal]DWL[Bip]V[Orn][dL][Dab][Cha]VRC[4Abz][Aun]-OH; thioether N-14) | 537
